Laboratory results from patent publication US8409550B2, “Method for treating skin with retinoids and retinoid boosters” (Unilever Home & Personal Care, USA, Division of Conopco, …, priority 2000, dated 2013).
Where “and” joins values, the source holds several entries; their conditions need not be identical. Identical values can stand only once. Like-named read-outs stand apart in the source and are kept apart here.

How the values were obtained:
ARAT = test: Assay for ARAT activity, bovine RPE microsomes (to identify B1); format: biochemical; conditions: for % Inhibition ARAT (10 jm): compound 10 jm; for % Inhibition ARAT (100 jm): compound 100 jm
Procedure: (§1) 2.1 Isolation of RPE Microsomes (Modified from (1))
(§2) 50 frozen hemisected bovine eyecups, with the retina and aqueous humor removed were obtained from W. L. Lawson Co., Lincoln, Nebr., USA. The eyes were thawed overnight and the colored iridescent membrane was removed by peeling with forceps. Each eyecup was washed with 2× 0.5 mL cold buffer (0.1M PO4/1 mM DTT/0.25N sucrose, pH 7) by rubbing the darkly pigmented cells with an artist's brush or a rubber policeman. The cell suspension was added to the iridescent membranes and the suspension was stirred for several minutes in a beaker with a Teflon stir bar.
(§3) The cell homogenate was centrifuged for 30 min. at 20,000 g (Sorvaal model RC-5B centrifuge with an SS34 rotor in 2.5×10 cm tubes at 14,000 RPM). The resulting supernatant was subjected to further centrifugation for 60 min. at 150,000 g (Beckman model L80 Ultracentrifuge with an SW50.1 rotor in 13×51 mm tubes at 40,000 RPM). The resulting pellets were dispersed into ˜5 mL 0.1M PO4/5 mM DTT, pH 7 buffer using a Heat Systems Ultrasonics, Inc. model W185D Sonifier Cell Disrupter, and the resulting microsomal dispersion was aliquoted into small tubes and stored at −70° C. The protein concentrations of the microsomes were determined using the BioRad Dye binding assay, using BSA as a standard.
(§4) 2.3 Assay for ARAT and LRAT Activity (to Identify B1)
(§5) The procedure below was a modification of a method described in the literature (2). The following buffer was prepared and stored at 4° C.: 0.1M PO4 5 mM dithiothreitol, pH 7.0 (PO4/DTT). On the day of the assay, 2 mg BSA per mL of buffer was added to give a PO4/DTT/BSA working buffer. 1 mM retinol substrate was prepared in acetonitrile and stored in amber bottles under nitrogen gas at −20° C. Solutions of 4 mM Palmitoyl-CoA in working buffer (stored in aliquots) and 4 mM dilauroyl phosphatidyl choline in ethanol were prepared and stored at −20° C. Inhibitors were prepared as 10 mM stock solutions in H2O, ethanol, acetonitrile or DMSO. The quench solution was prepared using pure ethanol containing 50 μg/mL butylated hydroxytoluene (BHT), and a hexane solution containing 50 μg/mL BHT was used for the extractions.
The mixture was incubated for 5 min. at 37° C. to equilibrate the reaction temperature and then 5 μL 1 mM retinol was added. The vials were capped, vortexed for 5 seconds and incubated for 30-90 minutes at 37° C. The reaction was quenched by adding 0.5 mL ethanol/BHT. The retinoids were extracted by adding 3 mL hexane/BHT, vortexing the tubes for several seconds several times and centrifuging the tubes at low speed for 5 min. to quickly separate the layers. The upper hexane layer was removed into a clean vial, and the aqueous layer re-extracted with another 3 mL hexane/BHT, as described above. The hexane layers were combined, and the hexane evaporated by drying at 37° C. under a stream of nitrogen gas on a heated aluminum block. The dried residue was stored at −20° C. until HPLC analysis. The amount of retinyl palmitate and retinyl laurate was quantitated for ARAT and LRAT activity, respectively, by integration of the HPLC signal as described below.
Note that the incubation solution contains 40 μM acyl donor, 100 μM or less inhibitor, 10 uM retinol, approximately 30 μg/mL microsomal protein, and nearly 0.17 PO4/pH 7/5 mM DTT/2 mg/mL BSA. All steps subsequent to the addition of retinol were done in the dark or under amber lights.
Samples for retinoid quantitation by HPLC were prepared by dissolving the residue in each vial with 100 μL of methanol. […] Aliquots of 60 μL were injected immediately and analysed for retinoid content.
Two HPLC protocols were used for retinoid analysis.
These protocols were selected based on their ability to clearly resolve pertinent retinoid acids, alcohols, aldehydes, and/or esters for each assay and relative quickness of separation.

[1] = test system: transglutaminase (TGase I); test: Transglutaminase (Tgase) ELISA assay in cultured keratinocytes with retinol and boosters; format: cell-based, human; conditions: for TG as % C, Compd 3: Compound 3 alone; for TG as % C, Compd 3 / TG as % C Compd 2 / TG as % C Compd 1: concentration one log below IC20; for IC20: IC20 (80% of control); for Tgase levels (Mean): with 10^-7 M retinol
Procedure: For this reason, a transalutaminase (Tgase) assay was utilised.
Thus TGase I is a useful marker of epidermal keratinocyte differentiation with high TGase I levels indicating a more differentiated state. An ELISA based TGase I assay, using a TGase I antibody, was used to assess the state of differentiation of the cultured keratinocytes in the examples that follow.
Keratinocytes (cultured as described above) were plated in 96 well plates at a density of 4,000-5,000 cells per well in 200 μl media. After incubation for two to three days, or until cells are ˜50% confluent, the media was changed to media containing test compounds (five replicates per test). The cells were cultured for a further 96 hours after which time the media was aspirated and the plates stored at −70° C. Plates were removed from the freezer, and the cells were washed twice with 200 μl of 1×PBS. The cells were incubated for one hour at room temperature (R/T) with TBS/5% BSA (wash buffer, bovine serum albumin). Next the TGase primary antibody was added: 50 μl of monoclonal anti-Tgase I Ab B.C. diluted 1:2000 in wash buffer. The primary antibody was incubated for 2 hours at 37° C. and then rinsed 6× with wash buffer. Cells were then incubated with 50 μl of secondary antibody (Fab fragment, peroxidase conjugated anti-mouse IgG obtaining from Amersham) diluted 1:4,000 in wash buffer for two hours at 37° C., then rinsed three times with wash buffer. Following the rinse with washing buffer, the cells were rinsed 3× with PBS. For colourimetric development, the cells were incubated with 100 μl substrate solution (4 mg o-phenylenediamine and 3.3 μl 30% H2O2 in 10 ml 0.1M citrate buffer pH 5.0) for exactly five minutes, R/T, in darkness (under aluminum foil). The reaction was stopped by the addition of 50 μl 4 N H2SO4. […] Out of the five replicates, four were treated with both antibodies, the fifth one was use as a Tgase background control. Tgase levels were determined and expressed as percentage control.
A suspension of keratinocytes was prepared at a concentration of 3000 cells/200 μl/well in KGM medium (Used 3×10^5 cells/12 ml media in each microtitre plate)
200 μl of the keratinocyte suspension was transferred into each of the inner 60 wells only.
Each plate was incubated at 37° C. and 5% CO2 for 3 days or until cells are ˜50% confluent.
Stock solutions of the samples were prepared in DMSO.
The samples were diluted to desired concentration with the final assay concentration of DMSO being 0.1%.

LRAT = target: T1, LRAT (Bos taurus, UniProt Q9BGL2); test: Assay for LRAT activity, bovine RPE microsomes (to identify B1); format: biochemical; conditions: compound 100 jm
T1 construct: followed by approximately 15 μg of RPE microsomal protein; tissue W. L. Lawson Co., Lincoln, Nebr., USA (eyecups); host or cells: bovine retinal pigment epithelium microsomes
T1 sequence (Q9BGL2 1-230): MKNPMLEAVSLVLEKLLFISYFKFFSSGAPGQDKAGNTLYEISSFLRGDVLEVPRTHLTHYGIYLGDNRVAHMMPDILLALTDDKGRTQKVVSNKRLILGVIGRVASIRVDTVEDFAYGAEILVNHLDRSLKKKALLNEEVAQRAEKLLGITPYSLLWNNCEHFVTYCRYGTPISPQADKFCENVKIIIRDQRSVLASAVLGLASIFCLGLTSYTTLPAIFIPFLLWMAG
Procedure: as §1, §2, §3, §4, §5
The mixture was incubated for 5 min. at 37° C. to equilibrate the reaction temperature and then 5 μL 1 mM retinol was added. The vials were capped, vortexed for 5 seconds and incubated for 30-90 minutes at 37° C. The reaction was quenched by adding 0.5 mL ethanol/BHT. The retinoids were extracted by adding 3 mL hexane/BHT, vortexing the tubes for several seconds several times and centrifuging the tubes at low speed for 5 min. to quickly separate the layers. The upper hexane layer was removed into a clean vial, and the aqueous layer re-extracted with another 3 mL hexane/BHT, as described above. The hexane layers were combined, and the hexane evaporated by drying at 37° C. under a stream of nitrogen gas on a heated aluminum block. The dried residue was stored at −20° C. until HPLC analysis. The amount of retinyl palmitate and retinyl laurate was quantitated for ARAT and LRAT activity, respectively, by integration of the HPLC signal as described below. […]
Samples for retinoid quantitation by HPLC were prepared by dissolving the residue in each vial with 100 μL of methanol. […] Aliquots of 60 μL were injected immediately and analysed for retinoid content. […]

[2] = in the presence of 10^-7M retinol
[3] = compound tested individually in the presence of 10^-7 M retinol
[4] = Compound 1 alone, in the presence of 10^-7M retinol
[5] = Compound 2 alone, in the presence of 10^-7M retinol
[6] = Tgase inhibition, compound tested individually in the presence of 10^-7 M retinol, read-out: IC50

For `CC(C)=CCC/C(C)=C/CO` [Geraniol], the “% Inhibition ARAT (10 jm)” value (ARAT) was 13%, the “% Inhibition ARAT (100 jm)” value (ARAT) was 32% and the “TG as % C, Compd 3” value [1, 2] was 105 % C. It also gave an IC20 [1, 3] of 4720 µM.
Work on `C=CC(C)(O)CCC=C(C)C` (stereo not drawn) [Linalool] yielded an inhibition at 100 µM (LRAT) of 0%.
For `CC12CCC(C1)C(C)(C)C2O` (stereo not drawn) [Fenchyl Alcohol], the “% Inhibition ARAT (100 jm)” value (ARAT) was 12%.
With Dimethyl imidazoline the “TG as % C Compd 2” value ([1]; compound 2 alone, with retinol) was 112 % C.
In the case of `CC(C)(O)CCCC1=CCC(C=O)CC1` (stereo not drawn) [Lyral], the “% Inhibition ARAT (100 jm)” value (ARAT) is reported as 76%, the “TG as % C Compd 1” value [1, 4] is reported as 97 % C and the IC20 [1, 3] is reported as 40 µM. For the same compound, the “TG as % C Compd 1” value ([1]; compound 1 alone, with retinol) was 120 % C.
In the case of `CCCCC/C=C\C/C=C\CCCCCCCC(=O)NCCCN(C)C` [Linoleamidopropyl Dimethylamine], the “% Inhibition ARAT (100 jm)” value (ARAT) is reported as 69% +/− 18.
`CCCCCC(N)=O` [Hexanoamide] was tested, and the “% Inhibition ARAT (100 jm)” value (ARAT) was 20%.
In the case of `CC(C)=CCC/C(C)=C/CC/C(C)=C/CC/C(C)=C/CO` [Geranyl Geraniol], the “% Inhibition ARAT (10 jm)” value (ARAT) is reported as 38% +/− 12 and the “% Inhibition ARAT (100 jm)” value (ARAT) is reported as 81% +/− 6.
`CCCCCCCC(=O)OC[C@H](COP(=O)(O)OCCN)OC(=O)CCCCCCC` [1,2-dioctanoyl-sn-glycero-3-phosphoethanolamide] was tested, and the “TG as % C Compd 1” value [1, 4] was 81 % C, the “Tgase levels (Mean)” value ([1]; booster 1.6E−04 Molar) was 58.1 % of control and the “Tgase levels (Mean)” value ([1]; booster 1.78E−05 Molar) was 104 % of control. For the same compound, the “Tgase levels (Mean)” value ([1]; booster 1.79E−9 Molar) was 82 % of control, the “Tgase levels (Mean)” value ([1]; booster 1.98E−06 Molar) was 110 % of control and the “Tgase levels (Mean)” value ([1]; booster 2.19E−09 Molar) was 88.6 % of control. The “Tgase levels (Mean)” value ([1]; booster 4.39E−08 Molar) was 127.3 % of control, the “Tgase levels (Mean)” value ([1]; booster 5.33E−05 Molar) was 95.4 % of control and the “Tgase levels (Mean)” value ([1]; booster 5.93E−06 Molar) was 129 % of control. The “Tgase levels (Mean)” value ([1]; booster 6.58E−07 Molar) was 92.8 % of control, the “Tgase levels (Mean)” value ([1]; booster 8.78E−09 Molar) was 119 % of control and the “TG as % C Compd 1” value ([1]; compound 1 alone, with retinol) was 123 % C and 95 % C and 106 % C.
[…]-Damascone was tested, and the “TG as % C, Compd 3” value [1, 2] was 89 % C.
`CCCCCCCCCCCCCCCCC(O)C(=O)O` (stereo not drawn) [2-hydroxysteric acid, 2-Hydroxystearic acid] was tested, and the “TG as % C Compd 2” value [1, 5] was 83 % C and the “TG as % C Compd 1” value ([1]; compound 1 alone, with retinol) was 92 % C.
For `CCN(CC)CC(=O)Nc1c(C)cccc1C` [Lidocaine, reference compound], the “% Inhibition ARAT (100 jm)” value (ARAT) was 12%.
For `CC(C)=CCCC(C)=CCCC(C)=CCO` [Farnesol], the “% Inhibition ARAT (10 jm)” value (ARAT) was 23% +/− 18, the “% Inhibition ARAT (100 jm)” value (ARAT) was 53% +/− 18 and the “TG as % C, Compd 3” value [1, 2] was 118 % C. For the same compound, the IC20 [1, 3] was 78.2 µM and the “TG as % C Compd 1” value ([1]; compound 1 alone, with retinol) was 98 % C.
With `Nn1nnc2ccccc21` the “TG as % C Compd 2” value [1, 5] was 105 % C, the “TG as % C, Compd 3” value [1, 2] was 105 % C and the “TG as % C Compd 2” value ([1]; compound 2 alone, with retinol) was 105 % C and 126 % C. For the same compound, the “TG as % C Compd 2” value ([1]; compound 2 alone, with retinol, listed as Aminobenzotriazole) was 98 % C.
For Coco Trimethyl-ammonium Cl—, the “% Inhibition ARAT (100 jm)” value (ARAT) was 27%.
`CC(=O)/C=C/C1C(C)=CCCC1(C)C` (stereo not drawn) [a-Ionone] was tested, and the “TG as % C, Compd 3” value [1, 2] was 88 % C.
In the case of `O=C(O)CCCCCCCCCCCCCCC(=O)O` [Hexadecanedioic Acid], the “TG as % C Compd 2” value [1, 5] is reported as 90 % C, the IC20 [1, 3] is reported as 84 µM and the IC50 [1, 6] is reported as 130 µM. The “TG as % C Compd 2” value ([1]; compound 2 alone, with retinol) was 125 % C.
`COc1cc(NS(C)(=O)=O)ccc1Nc1c2ccccc2nc2ccccc12` [Amsacrine, reference compound] was tested, and the “TG as % C Compd 1” value [1, 4] was 79 % C, the “TG as % C Compd 2” value [1, 5] was 79 % C and the IC20 [1, 3] was 3.3 µM. For the same compound, the “TG as % C Compd 1” value ([1]; compound 1 alone, with retinol) was 102 % C.
For `CCCCCCCCCCCCCCCC(=O)O` [Hexadecanoic acid], the “TG as % C Compd 2” value ([1]; compound 2 alone, with retinol) was 95 % C.
With `O=C1CCc2ccccc2N1` [3,4-dihydro-2 quinolinone, 3,4,-Dihydro-2(1H)-quinolinone(Hydrocarbostyril)] the “TG as % C Compd 2” value ([1]; compound 2 alone, with retinol) was 102 % C.
For `CCCCC/C=C\C/C=C\CCCCCCCC(=O)NCCO` [Linoleoyl Monoethanolamide (LAMEA)], the “TG as % C, Compd 3” value [1, 2] was 127 % C.
For `CCCCCCCCCCC(O)C(=O)NCCO` (stereo not drawn) [Hydroxyethyl-2-Hydroxy-C12 Amide, N-Hydroxyethyl-2-hydroxydodecyl amide], the IC50 ([1]; B1 table, booster concentration which with 10^−7 M retinol inhibits TGase by 50%, same values in the 19th table (Molar), read-out: Overall TG (IC 50)) was 32.9 µM, the IC20 [1, 3] was 24 µM and the IC50 [1, 6] was 32.9 µM.
For `C/C=C\C(=O)C1C(C)=CCCC1(C)C` (stereo not drawn) [a-Damascone], the “TG as % C, Compd 3” value [1, 2] was 89 % C.
In the case of Dimethyl Imidazolidinone, the “% Inhibition Overall TG (—ROH/RE)” value ([1]; % (booster+retinol inhibition/control inhibition) − % (ROH inhibition/control inhibition)) is reported as 22% and the “TG as % C Compd 1” value ([1]; compound 1 alone, with retinol) is reported as 99 % C.
`O=c1c2cccc3cccc(c32)c2nc3ccccc3n12` [7H-Benzimidazo[2,1-a]Benz[de]-isoquinolin-7-one] was tested, and the “TG as % C, Compd 3” value [1, 2] was 94 % C and the IC20 [1, 3] was 0.469 µM.
With `CCCCCCCC/C=C/CCCCCCCC(=O)O` [Elaidic Acid] the “TG as % C Compd 1” value [1, 4] was 93 % C, the “TG as % C, Compd 3” value [1, 2] was 93 % C and the IC20 [1, 3] was 58.8 µM. For the same compound, the IC50 [1, 6] was 65 µM and the “TG as % C Compd 2” value ([1]; compound 2 alone, with retinol) was 144 % C.
In the case of `CC(C)CCCCCCCCCCCCCCC(=O)O` [Isostearic Acid], the “TG as % C Compd 2” value [1, 5] is reported as 87 % C, the IC20 [1, 3] is reported as 62.3 µM and the “TG as % C Compd 2” value ([1]; compound 2 alone, with retinol) is reported as 146 % C.
